Assay results from paper PMC6591177, “Small Molecule IL-36γ Antagonist as a Novel Therapeutic Approach for Plaque Psoriasis” (Scientific Reports, 2019).

What was measured:
[1] = Drug plasma levels / oral exposure in mice; details: mouse, in vivo
mouse IL-36α = molecular target: T1, mouse IL-36α (Mus musculus, UniProt Q9JLA2); assay: Cross-reactivity to mouse IL-36α; type: binding
T1 sequence (Q9JLA2 8-160): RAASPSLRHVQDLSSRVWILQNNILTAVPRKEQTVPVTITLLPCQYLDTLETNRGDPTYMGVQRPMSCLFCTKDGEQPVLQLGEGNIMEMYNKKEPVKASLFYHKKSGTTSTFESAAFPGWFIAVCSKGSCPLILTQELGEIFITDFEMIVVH

human IL-36γ = molecular target: T2, human IL-36γ (Homo sapiens, UniProt Q9NZH8); assay: Thermal shift assay, human IL-36γ; type: binding; details: 100 μM compound; read-out: increase of melting temperature of human IL-36γ
T2 construct: His6-SUMO-human IL-36γ (18–169); His6-SUMO (N, cleaved yes); made in house; host or cells: E. coli BL21 (DE3)
T2 sequence (Q9NZH8 18-169): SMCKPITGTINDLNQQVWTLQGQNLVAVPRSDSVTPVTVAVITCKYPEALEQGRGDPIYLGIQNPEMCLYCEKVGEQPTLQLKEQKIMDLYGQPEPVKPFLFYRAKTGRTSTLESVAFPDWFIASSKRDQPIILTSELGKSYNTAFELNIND
Method: Thermal shift assays[30] were performed on a Roche LightCycler 480 instrument using Sypro Orange Dye (Invitrogen). Reactions consisted of 0.5–2 µM purified recombinant protein in PBS, pH 7.4, a 1/500 dilution of the stock Sypro Orange reagent, and 100 µM test compounds, resulting in a final DMSO concentration of 1%. The samples were heated from 20 °C to 95 °C at a rate of 0.25 °C per second.

[2] = system: 3D human skin equivalents; assay: IL-36γ induced 3D skin equivalent model; type: cell-based
Method: Hematoxylin & eosin (H&E) staining and immunohistochemistry (IHC) were performed using a Leica ST5010 autostainer or Leica Bond RX automated immunostainer. Standardized IHC protocols were used for anti-loricrin staining (Abcam AB85679). Stained tissue slides were digitized for image analysis using a Perkin Elmer P250 whole slide digital pathology slide scanner with 20X objective and extended focus scanning parameters. For quantitative analysis, N = 3 raft samples were analyzed per condition for each stain using whole slide digital analysis software (Indica Labs HALO). Staining was normalized to the length of the raft sample analyzed.
3D skin equivalents (SOR-300-FT-CTR) comprised of human neonatal keratinocytes and fibroblasts were purchased from MatTek, equilibrated for one day in proprietary formulated media (SOR-300-FT-CTR-MM) and then treated as indicated. Treatment groups contained hIL-36γ at 300 ng/mL, 10 μM of A-552, 10 μg/mL anti-IL36R antibody, 10 μg/mL IL-36RA, or 10 μg/mL IgG isotype control either alone or in combination with hIL-36γ. Control skin equivalents were treated with media only. Skin equivalents were treated for three days, with media collected for cytokine release studies at day two and replaced with fresh treatment media. After three days the skin equivalents were either placed in 10% neutral buffered formalin solution (for histology) or frozen (for qRT-PCR).
To measure IL-6, IL-8 and CXCL1 release from 3D skin equivalents diluted sample media collected at day 2 of the treatment (see above) was used in conjunction with V-PLEX multiplex immunoassay for IL-6 and IL-8 and a U-PLEX immunoassay for CXCL1 (Meso Scale Discovery) according to the manufacturers’ protocols.
RNA from frozen 3D skin equivalents was isolated using miRNeasy Mini Kit (Qiagen) per the manufacturers’ instructions. For qRT-PCR determination a CFX384 Real-Time System C1000 Touch Thermocycler was used. […] Each transcript measured was presented as a fold change compared to control using the ∆∆CT method as RNA fold increase where RPLP0 was used as a housekeeping gene.

[3] = system: human IL-36γ induced plasma CXCL1; assay: hIL-36γ induced CXCL1 release in mouse plasma; type: in vivo; details: C57BL/6 mice, compounds 10, 30 and 100 mg/kg p.o.; antibody i.p.
Source text: Female C57BL/6 mice (9–10 weeks old, 19–23 g) were purchased from Charles River Laboratories. All animal procedures were approved by AbbVie’s Institutional Animal Care and Use Committee (IACUC) and performed in accordance with the relevant IACUC guidelines and regulations. To examine engagement of human IL-36γ with antagonists under in vivo conditions, a mouse acute CXCL1 release assay was established which was similar to one previously reported. Plasma CXCL1 secretion was induced by subcutaneous injection of 2 μg human IL-36γ (in 100 μL PBS) into C57BL/6 mice. Blood was withdrawn via cardiac puncture 2 h after the challenge with IL-36γ. A-552 and A-553 were dosed at 10, 30 and 100 mg/kg p.o. 45 min before IL-36γ challenge. Anti-IL36R antibodies were dosed i.p. at 24 hours before IL-36γ challenge. Plasma CXCL1 levels were analyzed using MSD V-PLEX kit.

[4] = system: human IL-36γ evoked CXCL1 release from Human HaCaT cells; assay: human IL-36γ evoked CXCL1 release, human HaCaT cells; type: cell-based; details: ± S.D.
Method: The immortalized human keratinocyte cell line HaCaT and mouse fibroblast NIH-3T3 cell line were maintained in culture in DMEM with 10% fetal bovine serum and 1% penicillin/streptomycin added (Sigma). Cells were seeded in 96-well tissue culture plates (Corning) at 25,000 cells per well and allowed to adhere and recover overnight at 37 °C in an incubator. Cells were rinsed with PBS (Sigma) and treated with cytokines diluted in 200 μL/well of the medium (DMEM with 0.5% FBS and 1% penicillin/streptomycin) as indicated. In inhibition mode, the agonist concentration used was at the EC80 for chemokine production and the cells were pre-treated with inhibitors for 30 min prior to adding the agonist. After 24 h of treatment, supernatants were collected and IL-8 and CXCL1[28] levels were assessed using a custom immunoassay (Meso Scale Discovery). EC50/IC50 values were estimated from a four-parameter logistic fit using Prism software (GraphPad).

human IL-36β = molecular target: T3, human IL-36β (Homo sapiens, UniProt Q9NZH7); assay: Affinity for human IL-36β; type: binding
T3 sequence (Q9NZH7 5-164): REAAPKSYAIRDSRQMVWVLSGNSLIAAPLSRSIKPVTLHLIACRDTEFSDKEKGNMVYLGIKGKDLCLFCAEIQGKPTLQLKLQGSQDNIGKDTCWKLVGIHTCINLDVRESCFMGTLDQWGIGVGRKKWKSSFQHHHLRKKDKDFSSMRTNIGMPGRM

## COC(c1ccccc1)(c1ccccc1)[C@H](Oc1nc(C)cc(-c2ccc(C)c(N)c2)n1)C(=O)O [Compound A-552]
[1]
  oral bioavailability: orally bioavailable
Mouse IL-36α
  cross-reactivity to mouse IL-36α: lack of species cross-reactivity
Human IL-36γ
  ΔTm at 100 µM: 6.1 °C
[2]; 0.3 μg/mL hIL-36γ, 10 μM A-552, 10 μg/mL antibody or IL-36Ra, three days
  effect on hIL-36γ induced changes in morphology, gene expression and cytokine production: attenuated
[2]; without hIL-36γ
  effect on 3D human skin equivalents when treated alone: no appreciable effect
[3]
  effect on hIL-36γ induced plasma CXCL1 release (in words): robustly attenuated CXCL1 levels in plasma in a dose-dependent manner
[4]
  Ki: 31 ± 22 nM
Human IL-36β
  affinity for human IL-36β: does not show affinity
